Measurements reported in patent publication US20160199434A1, “COMPOSITIONS AND METHODS FOR MODULATING DNA METHYLATION” (OHIO STATE INNOVATION FOUNDATION, priority 2013, published 2016).

Test system: human A375 melanoma cells
Assay: Tumor growth of human A375 melanoma cells implanted in SCID mice
Format: in vivo, mouse
Details: 19 days after palpable tumor formation, AKB-6899 17.5 mg/kg, Docetaxel 30 mg/kg
Procedure: During treatment, tumor growth was determined. Animals were treated with one the following combinations: vehicle/vehicle, vehicle/AKB-6899 (17.5 mg/kg), Docetaxel (30 mg/kg)/vehicle, or Docetaxel/AKB-6899. 19 days after palpable tumor formation, the tumors in the mice receiving the vehicle/AKB-6899 combination had tumors that were 74% the size of control; the tumors in the mice receiving Docetaxel/vehicle combination had tumors that were 49% the size of control; and the tumors in the mice receiving the Docetaxel/AKB-6899 combination had tumors that were 13% the size of control.

CC(=O)O[C@@]12CO[C@@H]1C[C@H](O)[C@@]1(C)C(=O)[C@H](O)C3=C(C)[C@@H](OC(=O)[C@H](O)[C@@H](NC(=O)OC(C)(C)C)c4ccccc4)C[C@@](O)([C@@H](OC(=O)c4ccccc4)[C@H]21)C3(C)C [Docetaxel, reference compound]
tumor size relative to control: 49%
